Data from patent publication US12636300B2, “Methods of treatment and maintenance therapy for bladder cancer using gemcitabine” (Janssen Biotech, Inc., priority 2017, dated 2026).

Experiments:
[1] = tested on: muscle-invasive urothelial cell carcinoma of the bladder; test: Clinical response assessment after TAR-200 induction (cystoscopy, CT/MRI/PET, biopsy); type: in vivo, human
Experimental: (§1) Subjects receive the first TAR-200 transurethrally via the TARIS Inserter on Study Day 0. On Study Day 21 (±3 days), this first TAR-200 will be removed via flexible or rigid cystoscopy, and then the second TAR-200 will be placed. TAR-200 is an intravesicular device that contains 225 mg of gemcitabine. This removal/replacement procedure is repeated for a third and fourth dosing cycle in the induction period on Study Days 42 (±3 days), and 63 (±3 days), respectively. The fourth TAR-200 will be removed on Study Day 84 (±3 days), and the 3-month response assessment will be conducted.
During the maintenance period, a 21-day dosing cycle occurs every quarter (3 months) starting at approximately 6 months. Subjects may continue to undergo quarterly dosing cycles for 3 dosing cycles.
All subjects are assessed for clinical response every 3 months by cystoscopy, pelvic computed tomography (CT)/magnetic resonance imaging (MRI)/positron emission tomography (PET), and biopsy (at 12 weeks only, unless clinically indicated). Subjects are also assessed for symptom control at 3, 6, 9, and 12 weeks, and approximately every month during the maintenance period.
The secondary endpoints are proportion of subjects with clinical complete response (cCR), clinical partial response (cPR), stable disease (SD), and progression on the basis of visual lesions on cystoscopy, pelvic CT/MRI/PET, and biopsy. For purposes of this study, cCR means no evidence of the disease in the bladder or notes. cPR means in the previously N0 subject, a down staging in bladder tumor burden to <pT2 disease and no evidence of nodal disease burden or in the N1-N3 subject: a down staging in bladder tumor burden to <pT2 disease and no evidence of an increase in the size of nodal disease burden or no evidence of down staging in bladder tumor burden and a decrease in the size of nodal disease burden. Stable disease means persistent MIBC without evidence of metastasis. Progression means M1 disease or significant increase in burden of disease in bladder based upon cystoscopy and Ct/MRI/PET. […]

[2] = Safety and tolerability of 4 consecutive 21 day TAR-200 dosing cycles; type: in vivo, human; details: four consecutive 3-week delivery periods; patients unfit for radical cystectomy
Experimental: as §1
The primary endpoint is assessment of safety and tolerability of 4 consecutive 21 day TAR-200 dosing cycles.
Twenty three patients were enrolled in the study as described in Example 1. The age range among the enrolled patients is from 50 to 98. The mean age is 82.6, and the median age is 84. The patients were treated and assessed according to the methods described therein. Patients that accomplished a complete response, partial response or stable disease after the induction phase received the maintenance phase treatment.

Nc1ccn([C@@H]2O[C@H](CO)[C@@H](O)C2(F)F)c(=O)n1 [gemcitabine]
duration of durable effect after the induction therapy ([1]; after the induction therapy): at least 100 days | objective response rate (ORR) ([1]; per protocol basis, end of induction period (Day 84)): 80% | complete response rate ([1]; per protocol basis, end of induction period (Day 84), ten patients who completed four cycles): 50% | tolerability of four consecutive doses (induction) [2]: well tolerate
